# How the values were obtained:
# Assay type in all cases: functional
# [1] = Growth inhibition of human HCC2998 cells assessed as cell growth at 5X10'-9 M after 48 hrs by sulforhodamine B assay; details: HCC 2998, 48 h, read-out: Activity
# [2] = test system: HT-29; assay: Growth inhibition of human HT-29 cells assessed as cell growth at 5X10'-5 M after 48 hrs by sulforhodamine B assay; details: HT-29, 48 h, read-out: Activity
# [3] = test system: HOP-62; assay: Growth inhibition of human HOP62 cells assessed as cell growth at 5X10'-5 M after 48 hrs by sulforhodamine B assay; details: HOP-62, 48 h, read-out: Activity
# [4] = test system: BT-549; assay: Growth inhibition of human BT549 cells assessed as cell growth at 5X10'-6 M after 48 hrs by sulforhodamine B assay; details: BT-549, 48 h, read-out: Activity
# [5] = test system: OVCAR-3; assay: Growth inhibition of human OVCAR3 cells assessed as cell growth at 5X10'-6 M after 48 hrs by sulforhodamine B assay; details: OVCAR-3, 48 h, read-out: Activity
# [6] = test system: UACC-257; assay: Growth inhibition of human UACC257 cells assessed as cell growth at 5X10'-6 M after 48 hrs by sulforhodamine B assay; details: UACC-257, 48 h, read-out: Activity
# [7] = test system: SK-MEL-5; assay: Growth inhibition of human SK-MEL-5 cells assessed as cell growth at 5X10'-6 M after 48 hrs by sulforhodamine B assay; details: SK-MEL-5, 48 h, read-out: Activity
# [8] = test system: MOLT-4; assay: Growth inhibition of human MOLT4 cells assessed as cell growth at 5X10'-9 M after 48 hrs by sulforhodamine B assay; details: MOLT-4, 48 h, read-out: Activity
# [9] = test system: SF-539; assay: Growth inhibition of human SF539 cells assessed as cell growth at 5X10'-6 M after 48 hrs by sulforhodamine B assay; details: SF-539, 48 h, read-out: Activity
# [10] = test system: SF-295; assay: Growth inhibition of human SF295 cells assessed as cell growth at 5X10'-6 M after 48 hrs by sulforhodamine B assay; details: SF-295, 48 h, read-out: Activity
# [11] = test system: SW-620; assay: Growth inhibition of human SW620 cells assessed as cell growth at 5X10'-6 M after 48 hrs by sulforhodamine B assay; details: SW-620, 48 h, read-out: Activity
# [12] = test system: CCRF-CEM; assay: Growth inhibition of human CCRF-CEM cells assessed as cell growth at 5X10'-6 M after 48 hrs by sulforhodamine B assay; details: read-out: Activity
# [13] = test system: T47D; assay: Growth inhibition of human T47D cells assessed as cell growth at 5X10'-7 M after 48 hrs by sulforhodamine B assay; details: read-out: Activity
# [14] = Growth inhibition of human Hs 578T cells assessed as cell growth at 5X10'-7 M after 48 hrs by sulforhodamine B assay; details: read-out: Activity
# [15] = test system: MDA-MB-231; assay: Growth inhibition of human MDA-MB-231 cells assessed as cell growth at 5X10'-7 M after 48 hrs by sulforhodamine B assay; details: MDA-MB-231, 48 h, read-out: Activity
# [16] = test system: UACC-62; assay: Growth inhibition of human UACC62 cells assessed as cell growth at 5X10'-7 M after 48 hrs by sulforhodamine B assay; details: UACC-62, 48 h, read-out: Activity
# [17] = test system: SNB-19; assay: Growth inhibition of human SNB19 cells assessed as cell growth at 5X10'-7 M after 48 hrs by sulforhodamine B assay; details: SNB-19, 48 h, read-out: Activity
# [18] = test system: SW-620; assay: Growth inhibition of human SW620 cells assessed as cell growth at 5X10'-7 M after 48 hrs by sulforhodamine B assay; details: SW-620, 48 h, read-out: Activity
# [19] = Growth inhibition of human HCC2998 cells assessed as cell growth at 5X10'-7 M after 48 hrs by sulforhodamine B assay; details: HCC 2998, 48 h, read-out: Activity
# [20] = test system: NCI-H522; assay: Growth inhibition of human NCI-H522 cells assessed as cell growth at 5X10'-7 M after 48 hrs by sulforhodamine B assay; details: NCI-H522, 48 h, read-out: Activity
# [21] = test system: A549; assay: Growth inhibition of human A549/ATCC cells assessed as cell growth at 5X10'-7 M after 48 hrs by sulforhodamine B assay; details: A549, 48 h, read-out: Activity
# [22] = test system: T47D; assay: Growth inhibition of human T47D cells assessed as cell growth at 5X10'-8 M after 48 hrs by sulforhodamine B assay; details: read-out: Activity
# [23] = test system: BT-549; assay: Growth inhibition of human BT549 cells assessed as cell growth at 5X10'-8 M after 48 hrs by sulforhodamine B assay; details: BT-549, 48 h, read-out: Activity
# [24] = Growth inhibition of human NCI-ADR-RES cells assessed as cell growth at 5X10'-8 M after 48 hrs by sulforhodamine B assay; details: read-out: Activity
# [25] = test system: SK-MEL-28; assay: Growth inhibition of human SK-MEL-28 cells assessed as cell growth at 5X10'-8 M after 48 hrs by sulforhodamine B assay; details: SK-MEL-28, 48 h, read-out: Activity
# [26] = test system: SK-MEL-2; assay: Growth inhibition of human SK-MEL-2 cells assessed as cell growth at 5X10'-8 M after 48 hrs by sulforhodamine B assay; details: SK-MEL-2, 48 h, read-out: Activity
# [27] = test system: MDA-MB-435; assay: Growth inhibition of human MDA-MB-435 cells assessed as cell growth at 5X10'-8 M after 48 hrs by sulforhodamine B assay; details: MDA-MB-435, 48 h, read-out: Activity
# [28] = test system: M14; assay: Growth inhibition of human M14 cells assessed as cell growth at 5X10'-8 M after 48 hrs by sulforhodamine B assay; details: M14, 48 h, read-out: Activity
# [29] = test system: SF-268; assay: Growth inhibition of human SF268 cells assessed as cell growth at 5X10'-8 M after 48 hrs by sulforhodamine B assay; details: SF-268, 48 h, read-out: Activity
# [30] = test system: TK-10; assay: Growth inhibition of human TK10 cells assessed as cell growth at 5X10'-5 M after 48 hrs by sulforhodamine B assay; details: TK-10, 48 h, read-out: Activity
# [31] = test system: OVCAR-3; assay: Growth inhibition of human OVCAR3 cells assessed as cell growth at 5X10'-5 M after 48 hrs by sulforhodamine B assay; details: OVCAR-3, 48 h, read-out: Activity
# [32] = test system: HT-29; assay: Growth inhibition of human HT-29 cells assessed as cell growth at 5X10'-8 M after 48 hrs by sulforhodamine B assay; details: HT-29, 48 h, read-out: Activity
# [33] = test system: NCI-H322M; assay: Growth inhibition of human NCI-H322M cells assessed as cell growth at 5X10'-8 M after 48 hrs by sulforhodamine B assay; details: read-out: Activity
# [34] = test system: RPMI-8226; assay: Growth inhibition of human RPMI8226 cells assessed as cell growth at 5X10'-8 M after 48 hrs by sulforhodamine B assay; details: RPMI-8226, 48 h, read-out: Activity
# [35] = test system: LOX IMVI; assay: Growth inhibition of human LOXIMVI cells assessed as cell growth at 5X10'-9 M after 48 hrs by sulforhodamine B assay; details: read-out: Activity
# [36] = test system: SNB-19; assay: Growth inhibition of human SNB19 cells assessed as cell growth at 5X10'-9 M after 48 hrs by sulforhodamine B assay; details: SNB-19, 48 h, read-out: Activity
structure (smiles),measurement,setting,value
COc1cc(-c2nn(-c3cccc(NC(=O)Nc4ccc(Cl)c(Cl)c4)c3)cc2-c2ccncc2)ccc1Cl,growth at 0.005 µM,[1],101%
same,growth at 50 µM,[2],-19%
same,growth at 50 µM,[3],-9%
same,growth at 5 µM,[4],8%
same,growth at 5 µM,[5],-34%
same,growth at 5 µM,[6],-22%
same,growth at 5 µM,[7],-86%
same,growth at 0.005 µM,[8],103%
same,growth at 5 µM,[9],-21%
same,growth at 5 µM,[10],-26%
same,growth at 5 µM,[11],11%
same,growth at 5 µM,[12],-2%
same,growth at 0.5 µM,[13],84%
same,growth at 0.5 µM,[14],83%
same,growth at 0.5 µM,[15],66%
same,growth at 0.5 µM,[16],75%
same,growth at 0.5 µM,[17],84%
same,growth at 0.5 µM,[18],89%
same,growth at 0.5 µM,[19],97%
same,growth at 0.5 µM,[20],68%
same,growth at 0.5 µM,[21],60%
same,growth at 0.05 µM,[22],101%
same,growth at 0.05 µM,[23],104%
same,growth at 0.05 µM,[24],106%
same,growth at 0.05 µM,[25],95%
same,growth at 0.05 µM,[26],112%
same,growth at 0.05 µM,[27],97%
same,growth at 0.05 µM,[28],100%
same,growth at 0.05 µM,[29],102%
same,growth at 50 µM,[30],-1%
same,growth at 50 µM,[31],-50%
same,growth at 0.05 µM,[32],102%
same,growth at 0.05 µM,[33],102%
same,growth at 0.05 µM,[34],92%
same,growth at 0.005 µM,[35],97%
same,growth at 0.005 µM,[36],92%
